How the values were obtained:
[1] = tested on: Ehrlich ascites carcinoma; assay: In vivo antitumor activity against Ehrlich ascites carcinoma; parameters: species or system mouse; conditions: for Number of animals in the group with tumor / Number of animals in the group without tumor: 14 mice per group
Experimental: Outbred mice were administered Ehrlich ascites carcinoma cells (EAC) intraperitoneally (IP) at a dose of 2.5×10^5 cells in 0.25 ml of normal saline solution. The compounds under study, 1)^85RbeE2, was dissolved in deuterium-depleted water and 2) Cisplatin (Teva, the Netherlands), was dissolved in normal saline solution. The drugs were administered starting from the first day after mice were inoculated with tumor cells, using a microinjection syringe, at the following doses: 1)^85Rbe-E2 at a dose of 750 μg/mouse (weighing 20 g) in a volume of 0.3 ml as 3 IP injections (1 injection—250 μg/mouse) on the 1st, 4th and 7th day of the experiment; 2) Cisplatin at a dose of 4.5 mg/kg or 1.5 mg/kg as 3 IP injections on the 2nd, 5th and 8th day of the experiment. The dynamics of tumor growth in the experimental animals was observed (based on the volume of ascites in the peritoneal cavity) after the tumor cell inoculation and for 31 days of the experiment. On the 15th and 22nd day after IP administration of tumor cells, all the fluid accumulated in each animal's abdomen was extracted and the total number of live/dead cells in each mouse was determined. In addition, some mice were used to assess a survival rate of animals in the experiment.
Laboratory animals. 84 outbred female 10 to 12-week old mice weighing 22-26 g were used in the experimental study. The animals were obtained from the animal vivarium at R.E. Kavetsky IEPOR NASU. […] The animals were maintained in plastic cages, under natural light-dark cycles, fed standard food and allowed free access to food and tap water.
Tumor model. Ascites strain of Ehrlich ascites carcinoma maintained on outbred mice obtained from the cell and tissue line bank at R.E. Kavetsky IEPOR NASU was used in the experiment. To prepare the strain for injection, tumor cells derived from ascitic fluid were placed in normal saline solution and cellularity of the suspension was assessed in a hemocytometer and adjusted to a concentration of 1·10^6 cells/ml with saline solution. The tumor cells were inoculated by injecting 250 mcl of cell suspension from the tumor (0.25×10^6 cells/mouse) into the peritoneal cavity of laboratory animals.
The drugs were administered IP every other day, using a microinjection syringe, at doses specified above as a series of 3 injections of each compound according to the following scheme: ^85Rbe-E2 at a dose of 250 μg/mouse weighing 20 g+CP at a dose of […] 24 hours later (for groups (EAC+CP(4.5)) and (EAC+^85Rbe-E2+CP(4.5)) or […] (for groups (EAC+CP(1.5)) and (EAC+^85Rbe-E2+CP(1.5)) in a volume of 0.25 ml of saline solution (6 injections in total during 8 days).
The tumor growth dynamics in the laboratory animals was observed by daily control of the volume of ascitic fluid in the abdominal cavity of mice starting from the tumor inoculation and for 31 days of the experiment. The dynamics of ascites growth both in control and experimental groups was assessed visually using a 10-point scale, where 0 points were the absence of tumor growth and 10 points were the maximum increase in the size of the abdomen of the mouse with ascites (one point was 0.6 cm of the mean diameter of the mouse abdomen filled with the fluid).
Furthermore, on the 15th and 22nd day after intraperitoneal injection of tumor cells, all ascitic fluid was removed from the abdomen in 2 or 3 animals from each group by washing their peritoneal cavity with saline solution, and live/dead EAC cells were counted in each mouse using the traditional vital dye trypan blue (HyClon, USA) and a hemocytometer.
X=((a)/80)×10^6, where X is the number of cells in 1 ml and a is the number of cells counted in 5 large diagonal squares of the hemocytometer.
7 or 8 mice from each group were used to assess their survival in the experiment. The total lifespan observation time was 31 days from the moment of inoculation of tumor cells.
Statistical data processing. […]

[2] = tested on: Mouse B16 melanoma cells (MM-4 cell line); assay: Cytotoxic/cytostatic activity of E2+85Rbe and antitumor drug added simultaneously; assay type: cell-based
Experimental: The effects of the complex action of various doses of the investigated substances were evaluated using the concept of synergistic, additive and antagonistic effects of the drugs. The mathematics are detailed below. […] The effects were calculated using the Chou-Talalay method according to the following equation (“CI” refers to the “combination index”) (see T.-C. […] Where both the ^85Rb-enriched rubidium salt (referred to as “E2+^85Rbe”) and an AD were administered, they were administered simultaneously.

[3] = CP 1.5 mg/kg IP total (combination: + 85Rbe-E2 750 μg/mouse)
[4] = CP 4.5 mg/kg IP total (combination: + 85Rbe-E2 750 μg/mouse)
[5] = Day 15, CP 1.5 mg/kg IP total (combination: + 85Rbe-E2 750 μg/mouse)
[6] = Day 15, CP 4.5 mg/kg IP total (combination: + 85Rbe-E2 750 μg/mouse)
[7] = Day 22, CP 1.5 mg/kg IP total (combination: + 85Rbe-E2 750 μg/mouse)
[8] = Day 22, CP 4.5 mg/kg IP total (combination: + 85Rbe-E2 750 μg/mouse)

SMILES: N.N.[Cl][Pt][Cl] [cisplatin]
- Animals without tumor, % [1, 3]: 0%
- Number of animals in the group with tumor [1, 3]: 14
- Number of animals in the group without tumor [1, 3]: 0
- Animals without tumor, % [1, 4]: 0%
- Number of animals in the group with tumor [1, 4]: 14
- Number of animals in the group without tumor [1, 4]: 0
- Number of dead cells/mouse, % [1, 5]: 9.5 ± 2.8%
- Number of live cells/mouse, ×10^6 (M ± m) [1, 5]: 1188 ± 116 ×10^6
- Volume of ascites [1, 5]: 5.2 ± 1.3 mL
- Number of dead cells/mouse, % [1, 6]: <1%
- Number of live cells/mouse, ×10^6 (M ± m) [1, 6]: 33.5 ± 11 ×10^6
- Volume of ascites [1, 6]: 0.4 ± 0.1 mL
- Number of dead cells/mouse, % [1, 7]: 11 ± 1%
- Number of live cells/mouse, ×10^6 (M ± m) [1, 7]: 1154 ± 429 ×10^6
- Volume of ascites [1, 7]: 14.4 ± 8.7 mL
- Number of dead cells/mouse, % [1, 8]: <3%
- Number of live cells/mouse, ×10^6 (M ± m) [1, 8]: 430 ± 250 ×10^6
- Volume of ascites [1, 8]: 2.8 ± 1.3 mL
- Last day with statistically significant inhibition of EAC growth vs control ([1]; cisplatin 1.5 mg/kg (combination: + 85Rbe-E2)): 9 days
- Suppression of tumor growth vs control ([1]; cisplatin 1.5 mg/kg mono-regime, only up to the 10th day): 32%
- Suppression of tumor growth / decrease in tumor size vs control, average ([1]; cisplatin 4.5 mg/kg (combination: + 85Rbe-E2 total 750 mg/mouse as printed), throughout the observation period): 51.3%
- Survival, percent of mice ([1]; day 0, CP 1.5 mg/kg IP total (combination: + 85Rbe-E2 750 μg/mouse)): 100%
- Survival, percent of mice ([1]; day 0, CP 4.5 mg/kg IP total (combination: + 85Rbe-E2 750 μg/mouse)): 100%
- Size of mouse abdomen, points ([1]; day 9, CP 1.5 mg/kg IP total (combination: + 85Rbe-E2 750 μg/mouse IP total)): 3.8 ± 0.8 points
- Size of mouse abdomen, points ([1]; day 9, CP 4.5 mg/kg IP total (combination: + 85Rbe-E2 750 μg/mouse IP total)): 2.6 ± 0.2 points
- Size of mouse abdomen, points ([1]; day 13, CP 1.5 mg/kg IP total (combination: + 85Rbe-E2 750 μg/mouse IP total)): 5.9 ± 1.1 points
- Size of mouse abdomen, points ([1]; day 13, CP 4.5 mg/kg IP total (combination: + 85Rbe-E2 750 μg/mouse IP total)): 3.2 ± 0.3 points
- Size of mouse abdomen, points ([1]; day 15, CP 1.5 mg/kg IP total (combination: + 85Rbe-E2 750 μg/mouse IP total)): 6.9 ± 0.4 points
- Survival, percent of mice ([1]; day 15, CP 1.5 mg/kg IP total (combination: + 85Rbe-E2 750 μg/mouse)): 100%
- Number of live cells in ascites as fraction of the control ([1]; day 15, CP 4.5 mg/kg (combination: + 85Rbe-E2), p<0.05): approximately 1/53
- Size of mouse abdomen, points ([1]; day 15, CP 4.5 mg/kg IP total (combination: + 85Rbe-E2 750 μg/mouse IP total)): 3.1 ± 0.4 points
- Survival, percent of mice ([1]; day 15, CP 4.5 mg/kg IP total (combination: + 85Rbe-E2 750 μg/mouse)): 100%
- Number of live cells in ascites, times smaller than in the control ([1]; day 15, EAC+CP(4.5) group, p<0.05): 52 times
- Size of mouse abdomen, points ([1]; day 17, CP 1.5 mg/kg IP total (combination: + 85Rbe-E2 750 μg/mouse IP total)): 7.4 ± 0.6 points
- Survival, percent of mice ([1]; day 17, CP 1.5 mg/kg IP total (combination: + 85Rbe-E2 750 μg/mouse)): 100%
- Size of mouse abdomen, points ([1]; day 17, CP 4.5 mg/kg IP total (combination: + 85Rbe-E2 750 μg/mouse IP total)): 3.4 ± 0.4 points
- Survival, percent of mice ([1]; day 17, CP 4.5 mg/kg IP total (combination: + 85Rbe-E2 750 μg/mouse)): 87.5%
- Survival, percent of mice ([1]; day 19, CP 1.5 mg/kg IP total (combination: + 85Rbe-E2 750 μg/mouse)): 100%
- Survival, percent of mice ([1]; day 19, CP 4.5 mg/kg IP total (combination: + 85Rbe-E2 750 μg/mouse)): 87.5%
- Size of mouse abdomen, points ([1]; day 20, CP 1.5 mg/kg IP total (combination: + 85Rbe-E2 750 μg/mouse IP total)): 8.1 ± 0.6 points
- Size of mouse abdomen, points ([1]; day 20, CP 4.5 mg/kg IP total (combination: + 85Rbe-E2 750 μg/mouse IP total)): 4.8 ± 0.5 points
- Size of mouse abdomen, points ([1]; day 22, CP 1.5 mg/kg IP total (combination: + 85Rbe-E2 750 μg/mouse IP total)): 8.2 ± 0.8 points
- Survival, percent of mice ([1]; day 22, CP 1.5 mg/kg IP total (combination: + 85Rbe-E2 750 μg/mouse)): 100%
- Size of mouse abdomen, points ([1]; day 22, CP 4.5 mg/kg IP total (combination: + 85Rbe-E2 750 μg/mouse IP total)): 4.7 ± 0.7 points
- Survival, percent of mice ([1]; day 22, CP 4.5 mg/kg IP total (combination: + 85Rbe-E2 750 μg/mouse)): 75%
- Size of mouse abdomen, points ([1]; day 24, CP 1.5 mg/kg IP total (combination: + 85Rbe-E2 750 μg/mouse IP total)): 8.6 ± 0.8 points
- Survival, percent of mice ([1]; day 24, CP 1.5 mg/kg IP total (combination: + 85Rbe-E2 750 μg/mouse)): 100%
- Size of mouse abdomen, points ([1]; day 24, CP 4.5 mg/kg IP total (combination: + 85Rbe-E2 750 μg/mouse IP total)): 5.2 ± 0.9 points
- Survival, percent of mice ([1]; day 24, CP 4.5 mg/kg IP total (combination: + 85Rbe-E2 750 μg/mouse)): 75%
- Survival, percent of mice ([1]; day 25, CP 1.5 mg/kg IP total (combination: + 85Rbe-E2 750 μg/mouse)): 100%
- Survival, percent of mice ([1]; day 25, CP 4.5 mg/kg IP total (combination: + 85Rbe-E2 750 μg/mouse)): 75%
- Survival, percent of mice ([1]; day 26, CP 1.5 mg/kg IP total (combination: + 85Rbe-E2 750 μg/mouse)): 100%
- Survival, percent of mice ([1]; day 26, CP 4.5 mg/kg IP total (combination: + 85Rbe-E2 750 μg/mouse)): 75%
- Size of mouse abdomen, points ([1]; day 27, CP 1.5 mg/kg IP total (combination: + 85Rbe-E2 750 μg/mouse IP total)): 8.4 ± 1 points
- Survival, percent of mice ([1]; day 27, CP 1.5 mg/kg IP total (combination: + 85Rbe-E2 750 μg/mouse)): 87.5%
- Size of mouse abdomen, points ([1]; day 27, CP 4.5 mg/kg IP total (combination: + 85Rbe-E2 750 μg/mouse IP total), listed as CP): 5.2±0.9 points
- Survival, percent of mice ([1]; day 27, CP 4.5 mg/kg IP total (combination: + 85Rbe-E2 750 μg/mouse)): 75%
- Survival, percent of mice ([1]; day 28, CP 1.5 mg/kg IP total (combination: + 85Rbe-E2 750 μg/mouse)): 75%
- Survival, percent of mice ([1]; day 28, CP 4.5 mg/kg IP total (combination: + 85Rbe-E2 750 μg/mouse)): 75%
- Size of mouse abdomen, points ([1]; day 29, CP 1.5 mg/kg IP total (combination: + 85Rbe-E2 750 μg/mouse IP total)): 8.4 ± 1 points
- Survival, percent of mice ([1]; day 29, CP 1.5 mg/kg IP total (combination: + 85Rbe-E2 750 μg/mouse), listed as CP): 50%
- Size of mouse abdomen, points ([1]; day 29, CP 4.5 mg/kg IP total (combination: + 85Rbe-E2 750 μg/mouse IP total)): 5.4 ± 0.9 points
- Survival, percent of mice ([1]; day 29, CP 4.5 mg/kg IP total (combination: + 85Rbe-E2 750 μg/mouse), listed as CP): 75%
- Size of mouse abdomen, points ([1]; day 31, CP 1.5 mg/kg IP total (combination: + 85Rbe-E2 750 μg/mouse IP total)): 7.9 ± 1.4 points
- Survival, percent of mice ([1]; day 31, CP 1.5 mg/kg IP total (combination: + 85Rbe-E2 750 μg/mouse), listed as CP): 37.5%
- Size of mouse abdomen, points ([1]; day 31, CP 4.5 mg/kg IP total (combination: + 85Rbe-E2 750 μg/mouse IP total)): 6 ± 1.3 points
- Survival, percent of mice ([1]; day 31, CP 4.5 mg/kg IP total (combination: + 85Rbe-E2 750 μg/mouse), listed as CP): 62.5%
- % surviving MM-4 cells ([2]; cisplatinum 0.5 μg/ml alone): 84 ± 3.3%
- % surviving MM-4 cells ([2]; cisplatinum 1 μg/ml alone): 51.7 ± 6.9%
- % surviving MM-4 cells ([2]; cisplatinum 2.5 μg/ml alone): 24.6 ± 5.2%
- % surviving MM-4 cells ([2]; cisplatinum 5 μg/ml alone): 13.8 ± 1.2%
- % surviving MM-4 cells ([2]; cisplatinum 10 μg/ml alone): 2.6 ± 1.4%

— patent US11286236B2, “Compound, agent and composition for the suppression of cancer growth” (Vector Vitale IP LLC, priority 2018, dated 2022)
